Measured values: patent publication US11639325B2, “Compositions of polyhydroxylated benzophenones and methods of treatment of neurodegenerative disorders” (Massachusetts Institute of Technology, priority 2015, dated 2023)
pEC50: −log10 of the molar value. “Also recorded” adds a separate entry of the source. Where two headings read alike, the source gives them in different places.

Experiments:
HDAC1 = target: T1, HDAC1 (Homo sapiens, UniProt Q13547); assay: RapidFire Mass Spec assay of HDAC1 deacetylase activity with acetylated peptide substrates; type: biochemical; conditions: for HDAC1 activation (deacetylase activity): Bio-H4K12ac and bio-p53K382ac peptide substrates; for reversal of HDAC1 inhibition by CI-994: HDAC1 preincubated with exifone 1 or 10 μM, or with CI-994 1, 5 or 10 μM for 2 hours
T1 construct: purchased BPS Biosciences (San Diego, Calif.)
Method: (§1) Bio-H4K12ac and Bio-p53K382ac peptides were purchased from Anaspec (Fremont, Calif.). Recombinant HDAC1 and HDAC2 were from BPS Biosciences (San Diego, Calif.). Biochemical assays for evaluation of enzyme activity were performed in 384-well microplates (Perkin Elmer, Waltham, Mass.). A high throughput mass spectrometry assay based on RapidFire™ platform (Agilent Technology, Wakefield, Mass.) was used for analysis of HDAC activity with acetylated peptide substrates derived from histone Bio-H4K12ac (Anaspec #64849) and non-histone Bio-p53K382ac (Anaspec #65046) sequences.
For determination of dose dependence curves, test compounds were preincubated with HDAC1 for 15 minutes. Histone deacetylase reactions were performed following addition of acetylated peptide substrate. The reactions were performed in standard 384-well plates in 50 μl volume with an assay buffer containing 50 mM Tris, pH 7.4, 100 mM KCl, and 0.01% Brij-35. Enzyme reactions were terminated by adding 5 μl of 10% formic acid. Experiments designed to determine the mechanism of action used a varied range of substrate and test compound concentrations. For determining the dose response of individual compounds, HDAC1 reactions were performed with 1 μM of the acetylated peptide substrate for durations ranging from 45 mins for Bio-p53K382ac and 60 minutes for Bio-H4K12ac, with the aim of keeping the substrate conversion below 10%.
For Mass Spec based detection, assay plates were transferred onto a high throughput RapidFire200 integrated autosampler/solid-phase extraction (SPE) system (Agilent Technologies, Wakefield, Mass.) coupled to an API4000 triple quadrupole mass spectrometer (Applied Biosystems, Concord, Ontario, Canada). Additional details for the RapidFire MS analysis are described elsewhere (Rye et al. Advances in label-free screening approaches for studying sirtuin-mediated deacetylation. J Biomol Screen. 2011 December; 16(10):1217-26; Rye et al. Advances in label-free screening approaches for studying histone acetyltransferases. J Biomol Screen. 2011 December; 16(10):1186-95). The peaks detected by Mass Spec were integrated and processed with RapidFire peak integration software (Agilent).
Percentage of substrate conversion was estimated from the RapidFire HTMS assay as a function of product and substrate mass spectrum peak areas and is equal to 100*[Product/(Product+Substrate)]. Percentage of enzyme activation=[(MIN-test compound)/(MIN−MAX)*100], where MINimal (0%) enzyme activity is observed in the presence of a histone deacetylase inhibitor [10 μM SAHA (suberoylanilide hydroxamic acid), SAHA; Vorinostat] and MAXimal enzyme activity of HDAC1 reaction in absence of test compound as 100% activity. MAX and MIN values were calculated from an average of 16 wells of a single column of 384 well plate. Data were analyzed and plotted using Graphpad Prism 6.
Activator potencies were compared by estimating the EC^1.5 values as a function of EC50 values and maximum relative velocity (RVmax) (Dai et al, 2010). EC^1.5 is the concentration of the activator required to achieve 1.5 fold activation (Dai et al, 2010). Data on enzyme activation were analyzed using non-essential enzyme activation (Segel, (1975) Enzyme Kinetics, John Wiley, New York).

HDAC2 = target: T2, HDAC2 (Homo sapiens, UniProt Q92769); assay: RapidFire Mass Spec assay of HDAC2 deacetylase activity; type: biochemical; conditions: FIG. 4; read-out: EC50 for HDAC2 activation
T2 construct: purchased BPS Biosciences (San Diego, Calif.)
Method: as §1
For determination of dose dependence curves, test compounds were preincubated with HDAC1 for 15 minutes. […]
For Mass Spec based detection, assay plates were transferred onto a high throughput RapidFire200 integrated autosampler/solid-phase extraction (SPE) system (Agilent Technologies, Wakefield, Mass.) coupled to an API4000 triple quadrupole mass spectrometer (Applied Biosystems, Concord, Ontario, Canada). […] The peaks detected by Mass Spec were integrated and processed with RapidFire peak integration software (Agilent).
Percentage of substrate conversion was estimated from the RapidFire HTMS assay as a function of product and substrate mass spectrum peak areas and is equal to 100*[Product/(Product+Substrate)]. […] MAX and MIN values were calculated from an average of 16 wells of a single column of 384 well plate. […]

cultured neurons = assay: Immunostaining for γH2AX (DNA double-stranded breaks) in cultured neurons; type: cell-based
CK-p25 mice = assay: CK-p25 mouse model of neurodegeneration: immunohistochemistry and fear conditioning; type: in vivo
Method: (§2) For contextual fear conditioning, mice were put in the conditioning chamber (TSE systems) for 3 min, after which they received a one-time footshock (2 s, 0.8 mA). After 24 hr in the home cage, mice were placed in the same chamber and the freezing bouts, defined as a total lack of movement except for a heartbeat and respiration, were scored during every 10 s during a 3 min period.
(§3) Cued fear conditioning was performed by placing the animals in the test chamber for 3 min following exposure to the auditory cue (30 s, 20 kHz, 75 db sound pressure level) and a foot shock (2 s, 0.8 mA). Associative learning was assessed 24 hr later by placing the mice in the modified chamber and delivery of the identical auditory cue for 3 min.
CK-p25 mice are characterized by massive neuronal loss and severe memory impairment after 6 weeks of the p25 transgene induction (Cruz et al. Aberrant Cdk5 activation by p25 triggers pathological events leading to neurodegeneration and neurofibrillary tangles. Neuron. 2003 Oct. 30; 40(3):471-83). Exifone was chronically administered in CK-p25 mice, model, 3-month-old CK-p25 mice and control mice (no p25 overexpression) were induced for 6 weeks. They received either daily Exifone or vehicle for 3 weeks from week 3 to 6 during the induction period (FIG. 8A).
The associative memory in mice was examined by the contextual fear conditioning test described in Example 3. Mice were treated with vehicle control or exifone and freezing behavior observed 24 hours after contextual fear conditioning training.

5XFAD mice [1] = assay: 5XFAD mice behavioral tests (open field, contextual and cued fear conditioning); type: in vivo, mouse; conditions: 50 mg/kg i.p. for 2 weeks
Method: 8-month-old males (WT or 5XFAD mice) received daily for two weeks of full treatment either vehicle (80% saline, 10% DMSO, 10% Tween-80) or exifone (FIG. 1A) (50 mg/kg). Administration was by intraperitoneal injection for 2 weeks. After 2 weeks of treatment, mice were handled more than 3 days before each behavioral test.
Open field test was monitored by TSE Multi Conditioning System, total distance traveled and the number of visits in center were measured using automated activity monitors.
To assess memory formation, fear-conditioning tests in rodents were used. In these paradigms, the extent of freezing behavior, which is defined as the complete lack of movement other than from respiration upon re-exposure to an aversive stimulus (e.g. mild foot shock) and an environmental cue in the form of a specific context (e.g. test chamber) or cue (e.g. a tone), provides an assessment of the strength of memory. […]
as §2, §3
Behavioral tests were performed on vehicle treated wild type (WT) mice and 5XFAD mice treated with either vehicle control or exifone. […] In both contexts, freezing behavior of the mice was scored for examination memory.

5XFAD mice [2] = assay: Western blotting of hippocampi of treated 5XFAD mice (histone deacetylation); type: in vivo, mouse; conditions: 50 mg/kg i.p. for 2 weeks
Method: To determine the effects of restoration of HDAC1 activity in 5XFAD mice, mice were treated with exifone. Briefly, eight-month-old mice were administered doses of 50 mg/kg body weight exifone or vehicle control (10% DMSO, 10% Tween-80 and 80% saline) by intraperitoneal injection for 2 weeks. After 2 weeks of treatment, hippocampi were dissected and homogenized in RIPA buffer for Western blotting (FIGS. 10B and 10C).

5XFAD mice [3] = assay: LTP recording in hippocampal slices of treated 5XFAD mice; type: in vivo, mouse; conditions: thirteen-month-old 5XFAD mice, 50 mg/kg i.p. for 2 weeks
Method: Thirteen-month-old mice were administered doses of 50 mg per kg body weight exifone or vehicle by intraperitoneal injection for 2 weeks before long-term potentiation (LTP) recordings. For LTP recording, mice were anesthetized with isoflurane and decapitated. Transverse hippocampal slices (400 μm thick) were prepared in ice-cold dissection buffer (in mM: 211 sucrose, 3.3 KCl, 1.3 NaH2PO4, 0.5 CaCl2, 10 MgCl2, 26 NaHCO3 and 11 glucose) using a Leica VT1000S vibratome (Leica). Slices were recovered in a submerged chamber with 95% O2/5% CO2-saturated artificial cerebrospinal fluid (ACSF) consisting of (in mM) 124 NaCl, 3.3 KCl, 1.3 NaH2PO4, 2.5 CaCl2, 1.5 MgCl2, 26 NaHCO3 and 11 glucose for 1 h at 28-30° C. For extracellular LTP recording, CA1 field potentials evoked by Schaffer collateral stimulation with bipolar electrode was measured every 30 s. After recording of stable baseline for 15 min, LTP was induced by single theta-burst stimulations (TBS, containing 10 brief bursts which consisted of four pulses at 100 Hz).

[4] = system: Human induced pluripotent stem cell (iPSC)-derived neurons; assay: Viability (Alamar Blue) of human iPSC-derived neurons under rotenone stress; type: cell-based
From the text: To further determine the effects of exifone on neurodegenerative disorders like frontotemporal dementia, Alzheimer's disease, and Parkinson's disease, a cellular model of mitochondrial dysfunction and tauopathy was used. Human induced pluripotent stem cell (iPSC)-derived neurons from a healthy control (FIG. 15A) and a frontotemporal dementia patient with a mutation in tau (FIG. 15B) were differentiated in culture for eight weeks (See Silva et al., Stem Cell Reports, 2016). […] Cell viability was measured by Alamar Blue (4 h) assay±SD. Statistical Analysis: Student T-Test; ^nsP>0.05, *P<0.05, **P<0.01, ***P<0.001; n=2 and technical triplicates.

[5] = increasing exifone concentrations
[6] = AD mice model (CK-p25 mice) as printed

T1 sequence (Q13547 whole entry): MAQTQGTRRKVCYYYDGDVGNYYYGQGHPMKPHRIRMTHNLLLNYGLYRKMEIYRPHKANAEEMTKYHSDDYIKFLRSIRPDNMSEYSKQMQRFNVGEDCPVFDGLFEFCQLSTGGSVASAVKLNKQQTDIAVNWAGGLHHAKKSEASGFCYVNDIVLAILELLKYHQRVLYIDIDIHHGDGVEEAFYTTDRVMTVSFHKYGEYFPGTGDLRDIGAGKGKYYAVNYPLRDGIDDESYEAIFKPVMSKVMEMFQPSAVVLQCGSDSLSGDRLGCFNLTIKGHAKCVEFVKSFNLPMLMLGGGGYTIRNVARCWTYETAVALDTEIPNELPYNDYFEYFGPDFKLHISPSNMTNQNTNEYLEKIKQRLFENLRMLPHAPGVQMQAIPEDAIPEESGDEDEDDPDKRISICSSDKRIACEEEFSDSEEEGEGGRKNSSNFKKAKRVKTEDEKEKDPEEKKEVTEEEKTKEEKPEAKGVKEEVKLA
T2 sequence (Q92769 whole entry): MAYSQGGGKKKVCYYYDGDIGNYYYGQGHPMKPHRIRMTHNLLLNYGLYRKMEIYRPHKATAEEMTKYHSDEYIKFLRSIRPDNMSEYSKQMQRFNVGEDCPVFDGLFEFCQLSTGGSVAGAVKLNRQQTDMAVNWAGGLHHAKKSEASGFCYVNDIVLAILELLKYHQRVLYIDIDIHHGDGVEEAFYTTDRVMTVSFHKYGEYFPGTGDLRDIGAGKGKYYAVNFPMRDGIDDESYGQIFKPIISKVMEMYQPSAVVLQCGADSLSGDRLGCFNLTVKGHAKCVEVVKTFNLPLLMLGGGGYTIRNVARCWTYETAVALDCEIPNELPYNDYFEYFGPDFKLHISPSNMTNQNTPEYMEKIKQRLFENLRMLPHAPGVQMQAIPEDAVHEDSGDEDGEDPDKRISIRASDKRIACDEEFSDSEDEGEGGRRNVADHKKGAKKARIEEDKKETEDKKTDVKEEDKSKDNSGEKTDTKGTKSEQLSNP

O=C(c1ccccc1)c1ccccc1 [Benzophenone]
HDAC1 activation (deacetylase activity) (HDAC1): did not cause HDAC1 activation
HDAC1 activation (deacetylase activity) (HDAC1; listed as non-hydroxylated benzophenone): does not

O=C(c1cc(O)c(O)c(O)c1)c1ccc(O)c(O)c1O [exifone]
maximal activation of HDAC1 (HDAC1; 2 hour incubation of HDAC1 at room temperature prior to addition to reaction mix): up to nine fold
HDAC1 activation (deacetylase activity) (HDAC1): dose-dependent increase in HDAC1 activation; also recorded: potent small molecule activator of HDAC1; also recorded: increases the deacetylase activity of HDAC1
selectivity for HDAC1 activation compared with HDAC2 (HDAC1; FIG. 4): at least four fold more selective
pEC50 (HDAC1; FIG. 4, read-out: EC50 for HDAC1 activation (selectivity experiment)): 7.70
pEC50 (HDAC1; FIGS. 1B and 1D, 2 hour incubation of HDAC1 at room temperature prior to addition to reaction mix, read-out: EC50 of HDAC1 activation): 7.35
reversal of HDAC1 inhibition by CI-994 (HDAC1): capable of reversing inhibition
reversal of HDAC1 inhibition by CI-994 (HDAC1; listed as Exifone): partially reversed the inhibitory effect
HDAC1 activation at high substrate concentration (HDAC1; bio-H4K12ac peptide concentrations of 125 and 250 μM): No activation was observed
Vmax of HDAC1 reaction (HDAC1; [5]): increased the Vmax
apparent Km for the bio-H4K12ac peptide (HDAC1; [5]): decreased the apparent Km
rate of HDAC1-mediated deacetylation (substrate conversion) (HDAC1; substrate 1 μM, HDAC1 40 nM, exifone 0.05 μM vs control): increased the rate of HDAC1-mediated reactions compared to control conditions; also recorded: increases the rate of deacetylation reaction by HDAC1
mechanism of HDAC1 activation (HDAC1; varied substrate and activator concentrations): mixed non-essential reaction
pEC50 (HDAC2): 7.09
γH2AX intensity (DNA damage) (cultured neurons): significantly reduced the intensity of γH2AX; also recorded: protection from DNA damage
basal locomotion in the open-field test (CK-p25 mice; [6]): without an effect on basal locomotion
cognitive function in cued fear-conditioning test (CK-p25 mice; [6]): not in cued fear-conditioning test
freezing behavior / cognitive function in contextual fear conditioning test (CK-p25 mice; CK-p25 mice, 24 hours after training): enhances the cognitive function; also recorded: comparable freezing behavior to vehicle-treated or exifone-treated control mice
neuronal loss / markers of neurodegeneration (γH2A.X, NeuN, Hoechst) in hippocampus (CK-p25 mice; CK-p25 mice, daily for 3 weeks during p25 induction): significantly ameliorated neuronal loss; also recorded: significant reduction of these markers of neurodegeneration; also recorded: ameliorates neuronal loss
freezing response in conditioned (contextual) fear conditioning test (5XFAD mice [1]): significantly increased
freezing response in cued fear conditioning test (5XFAD mice [1]): significantly increased
open-field total distance traveled and number of visits to the center (5XFAD mice [1]): no effect on either of these parameters
histone deacetylation and HDAC1 activity in hippocampus (5XFAD mice [2]): trend towards increased histone deacetylation and HDAC1 activity
LTP induction (5XFAD mice [3]): reinstatement of LTP induction
rescue of viability of tauopathy patient-derived neurons from rotenone-induced stress ([4]; 8 hours pre-treatment, then 18 hour rotenone, multiple doses): rescued the vulnerability

C=C(C)[C@H]1Cc2c(ccc3c2O[C@@H]2COc4cc(OC)c(OC)cc4[C@@H]2C3=O)O1 [rotenone]
decrease in viability of tauopathy patient-derived neurons ([4]; rotenone, 18 hour): > 50%
